Data on nine compounds can be found in patent US20230159552A1, “[…] ITS ANALOGUES, METHODS FOR THEIR PREPARATION, AND METHODS OF USE” (priority 2020, published 2023).

Like-named read-outs stand apart in the source and are kept apart here.

In one experiment the test system is L1210. Kind of experiment: Cytotoxicity against L1210 cell line. Type of experiment: cell-based. Particulars: Mus musculus, murine lymphocytic leukemia cell line. From the text:
(§1) The results of the initial evaluation for cytotoxicity against various cancer cell lines of analogues 38a-f, along with those for 1, 36 and intermediate alcohol 35 are summarized in Table A. L1210 is a murine lymphocytic leukemia cell line. HCT116 and HCT116/VM46 are human colon cancer cell lines, with the latter being a multi-drug resistant variant of the former. MCF-7 is a human breast cancer cell line.

For the next experiment, the system named is HCT116. Nature of the experiment: Cytotoxicity against HCT116 cell line. It counts as cell-based, human.
Excerpt: as §1

The test system of the next experiment is HCT116/VM46. Nature of the experiment: Cytotoxicity against HCT116/VM46 cell line (multi-drug resistant variant). It counts as cell-based, human.
Excerpt: as §1

The next experiment concerns MCF-7. Kind of experiment: Cytotoxicity against MCF-7 cell line. It counts as cell-based, human.
Excerpt: as §1

Setting [1] is: HCT-116, human colon cancer cell line, read-out: Cell Line (IC50, nM) HCT116.
Where [2] appears, read: HCT-116/VM46, multi-drug resistant human colon cancer cell line, read-out: Cell Line (IC50, nM) HCT116/ VM46.
[3] abbreviates: MCF7, human breast cancer cell line, read-out: Cell Line (IC50, nM) MCT-7.

In the case of `CC(/C=C/[C@H]1OC(C)(C)C[C@@]2(CO2)[C@@H]1O)=C\C[C@@H]1O[C@H](C)[C@H](NC(=O)/C=C\[C@H](C)O)C[C@@H]1C` [Compound 35], the IC50 with L1210 worked out at 7.8 nM; in the experiment with HCT116 (setting [1]), 9.7 nM; in the experiment on HCT116/VM46 (setting [2]), 7.4 nM; in the experiment on MCF-7 (setting [3]), 47 nM.
As to `CC(/C=C/[C@H]1OC(C)(C)C[C@@]2(CO2)[C@@H]1O)=C\C[C@@H]1O[C@H](C)[C@H](NC(=O)/C=C\[C@H](C)OC(=O)N2CCN(C)CC2)C[C@@H]1C` [Compound 36], the IC50 is 790 nM in the experiment on L1210, 630 nM in the experiment on HCT116 (setting [1]), 840 nM in the experiment with HCT116/VM46 (setting [2]) and 930 nM with MCF-7 (setting [3]).
For `CC(/C=C/[C@H]1OC(C)(C)C[C@@]2(CO2)[C@@H]1O)=C\C[C@@H]1O[C@H](C)[C@H](NC(=O)/C=C\[C@H](C)OC(=O)N2CCSCC2)C[C@@H]1C` [Compound 38b] the same measures were 0.6 nM, 0.48 nM, 0.52 nM and 0.42 nM.
For `CC(/C=C/[C@H]1OC(C)(C)C[C@@]2(CO2)[C@@H]1O)=C\C[C@@H]1O[C@H](C)[C@H](NC(=O)/C=C\[C@H](C)OC(=O)N2CCCCC2)C[C@@H]1C` [Compound 38c] the same measures were 0.44 nM, 0.68 nM, 0.59 nM and 2.7 nM.
For `CC(/C=C/[C@H]1OC(C)(C)C[C@@]2(CO2)[C@@H]1O)=C\C[C@@H]1O[C@H](C)[C@H](NC(=O)/C=C\[C@H](C)OC(=O)N(C)C)C[C@@H]1C` [Compound 38d] the same measures were 0.58 nM, 0.54 nM, 0.53 nM and 0.39 nM.
With `CC(/C=C/[C@H]1OC(C)(C)C[C@@]2(CO2)[C@@H]1O)=C\C[C@@H]1O[C@H](C)[C@H](NC(=O)/C=C\[C@H](C)OC(=O)c2ccccc2)C[C@@H]1C` [Compound 38e], the IC50 is 1.8 nM with L1210, 0.72 nM with HCT116 (setting [1]), 0.65 nM in the experiment on HCT116/VM46 (setting [2]) and 2.4 nM with MCF-7 (setting [3]).
Regarding `CC(/C=C/[C@H]1OC(C)(C)C[C@@]2(CO2)[C@@H]1O)=C\C[C@@H]1O[C@H](C)[C@H](NC(=O)/C=C\[C@H](C)OC(=O)C(C)(C)C)C[C@@H]1C` [Compound 38f], the values for the IC50 with L1210, with HCT116 (setting [1]) and in the experiment on HCT116/VM46 (setting [2]) were 1.2 nM, 3.5 nM and 2.4 nM, respectively. Besides, in the experiment on HCT116 (relative to meayamycin (1), cell line not given), the “fold less potent than 1” value is listed as 5 fold.
In the case of `CC(=O)O[C@@H](C)/C=C\C(=O)N[C@@H]1C[C@H](C)[C@H](C/C=C(C)/C=C/[C@H]2OC(C)(C)C[C@@]3(CO3)[C@@H]2O)O[C@@H]1C` [Meayamycin (1), Meayamycin, reference compound], the IC50 in the experiment on L1210 turned out to be 0.54 nM; in the experiment with HCT116 (setting [1]), 0.56 nM; in the experiment on HCT116/VM46 (setting [2]), 0.51 nM; in the experiment with MCF-7 (setting [3]) it was 0.31 nM.
`CC(/C=C/[C@H]1OC(C)(C)C[C@@]2(CO2)[C@@H]1O)=C\C[C@@H]1O[C@H](C)[C@H](NC(=O)/C=C\[C@H](C)OC(=O)N2CCOCC2)C[C@@H]1C` [Meayamycin B (38a), Meayamycin B]: the IC50 came to 0.49 nM with HCT116 (Homo sapiens, HCT-116, read-out: Cell Line (IC50, nM) HCT116); 0.55 nM in the experiment with HCT116/VM46 (Homo sapiens, HCT-116/VM46, read-out: Cell Line (IC50, nM) HCT116/ VM46); 0.39 nM in the experiment with MCF-7 (Homo sapiens, MCF7, read-out: Cell Line (IC50, nM) MCT-7).
